Earlier results, collected in article PMC5364125 (EJNMMI Research, 2017).

Assays:
TSPO [1] = conditions: human subjects; cited from earlier work
[2] = parameters: method as in PMID 25616581; conditions: cited from earlier work
TSPO [3] = conditions: cited from earlier work
[4] = parameters: method as in PMID 27329083; conditions: rats; cited from earlier work
[5] = parameters: method as in PMID 27329083; conditions: cited from earlier work

SMILES: CC[C@@H](C)N([11CH3])C(=O)c1cc2ccccc2c(-c2ccccc2Cl)n1 [(R)-[^11C]PK11195]
- V T caudate (TSPO [1]): 0.3 ± 0.1
- V T cerebellum (TSPO [1]): 0.3 ± 0.1
- V T frontal cortex (TSPO [1]): 0.3 ± 0.1
- V T parietal cortex (TSPO [1]): 0.4 ± 0.1
- V T putamen (TSPO [1]): 0.3 ± 0.1
- V T thalamus (TSPO [1]): 0.4 ± 0.1

SMILES: CC[C@@H](C)N(C)C(=O)c1cc2ccccc2c(-c2ccccc2Cl)n1 [(R)-PK11195, reference compound]
- logP [2]: 2.54

SMILES: CCN(CC)C(=O)Cc1c(-c2ccc(O[11CH3])cc2)nn2c(C)cc(C)nc12 [[^11C]DPA-713]
- V T caudate (TSPO [1]): 3.1 ± 0.6
- V T cerebellum (TSPO [1]): 3.9 ± 0.9
- V T frontal cortex (TSPO [1]): 4.1 ± 0.8
- V T parietal cortex (TSPO [1]): 3.7 ± 0.7
- V T putamen (TSPO [1]): 3.5 ± 0.6
- V T thalamus (TSPO [1]): 4.7 ± 0.9

SMILES: COc1ccccc1CN(C(C)=O)c1cnccc1Oc1ccccc1 [PBR28]
- relative TSPO binding affinity to (R)-PK11195 (TSPO [3]): 2–5 folds

SMILES: CCCN(CCC)C(=O)Cc1c(-c2ccc(OC)cc2)nc2c(Cl)cc(Cl)cn12 [CB184]
- relative TSPO binding affinity to (R)-PK11195 (TSPO [3]): 7.9 fold
- Ki (TSPO [3]; read-out: K i, affinity for TSPO): 0.54 nM
- logP [2]: 2.06
- abnormalities in the acute toxicity test [4]: absence of any abnormalities
- mutagenicity [5]: absence of mutagenicity

SMILES: CCN(CC)C(=O)Cc1c(-c2ccc(OCCF)cc2)nn2c(C)cc(C)nc12 [DPA-714]
- relative TSPO binding affinity to (R)-PK11195 (TSPO [3]): 1.3 fold

SMILES: CCN(CC)C(=O)Cc1c(-c2ccc(OC)cc2)nn2c(C)cc(C)nc12 [DPA-713]
- relative TSPO binding affinity to (R)-PK11195 (TSPO [3]): 2 fold
